# Patent US9289400B2, “D3 dopamine receptor agonists to treat dyskinesia in parkinson's disease” (priority 2010, dated 2016)
# Entries after “also recorded” stand apart in the source; their conditions may differ. Like-named read-outs stand apart in the source and are kept apart here. Marks after values point to notes of the source that are not given here.
# How the values were obtained:
# D2L dopamine receptor = D2L dopamine receptor (Homo sapiens (Human), UniProt P14416); assay: cell-based; type: cell-based
# Chain of D2L dopamine receptor (P14416 whole entry): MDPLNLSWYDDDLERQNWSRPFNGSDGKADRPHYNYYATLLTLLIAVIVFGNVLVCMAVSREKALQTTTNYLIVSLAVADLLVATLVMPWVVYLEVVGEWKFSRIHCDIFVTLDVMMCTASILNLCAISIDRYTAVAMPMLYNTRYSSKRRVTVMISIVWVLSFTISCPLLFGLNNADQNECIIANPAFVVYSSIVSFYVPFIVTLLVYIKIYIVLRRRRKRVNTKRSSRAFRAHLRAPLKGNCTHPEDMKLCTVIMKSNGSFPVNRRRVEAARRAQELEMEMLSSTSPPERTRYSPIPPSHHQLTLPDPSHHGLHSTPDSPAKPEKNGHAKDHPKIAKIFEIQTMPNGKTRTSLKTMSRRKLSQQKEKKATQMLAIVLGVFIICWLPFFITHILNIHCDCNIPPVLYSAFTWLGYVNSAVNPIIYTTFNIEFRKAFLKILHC
# Method: (§1) The ability of the lead compound to dose-dependently decrease forskolin-induced cAMP levels is measured. The IC50 values for each receptor subtype is determined by fitting the data points using the Hill equation.
# (§2) AtT-20 mouse pituitary cells were grown in Ham's F10 medium with 5% FBS, 10% heat-inactivated horse serum, 2 mM glutamine and 50 μg/ml gentamicin (Invitrogen, Carlsbad, Calif.). AtT-20 cells stabling expressing the human D2S, D2L, D3, and D4.2 and receptor were maintained in the above F10 culture media supplemented with 500 μg/ml G418 (Invitrogen). For electrophysiological characterization, cells were plated onto glass coverslips coated with 40 μg/ml poly L-lysine (Sigma-Aldrich). […] Physiol. […] Neurosci. […] Biophys. […] Neurosci.
# (§3) The cAMP levels in each treated sample were assayed in triplicate and the entire experiment repeated three independent times.
# (§4) To compare the functional effects of the new class of D3 receptor agonists, PBZI (Table 2) and ES609 (Table 3) were tested on AtT-20 cells stably expressing human D3, D2S, D2L or D4.2.
# D4.2 dopamine receptor = D4.2 dopamine receptor (Homo sapiens (Human), UniProt P21917, DEL265-296); assay: cell-based; type: cell-based
# Chain of D4.2 dopamine receptor (P21917 other isoform, or with tags, fused parts or gaps del 265-296): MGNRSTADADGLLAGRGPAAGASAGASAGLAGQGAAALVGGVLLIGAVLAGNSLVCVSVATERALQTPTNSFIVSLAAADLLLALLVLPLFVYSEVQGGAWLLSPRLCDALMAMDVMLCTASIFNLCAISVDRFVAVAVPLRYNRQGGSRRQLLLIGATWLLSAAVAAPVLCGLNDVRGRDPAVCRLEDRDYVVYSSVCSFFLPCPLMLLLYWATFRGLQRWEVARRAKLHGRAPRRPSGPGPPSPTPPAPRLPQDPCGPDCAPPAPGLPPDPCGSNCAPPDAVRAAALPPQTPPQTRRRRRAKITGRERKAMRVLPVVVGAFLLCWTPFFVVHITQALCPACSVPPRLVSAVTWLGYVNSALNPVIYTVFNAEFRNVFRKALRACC
# Method: as §1, §2, §3, §4
# parental AtT-20 cells = assay: GIRK response in parental (non-transfected) AtT-20 cells; type: cell-based, mouse; settings: 300 nM, no exogenous D3 receptor expression
# Method: To determine whether a compound is an agonist of the D3 dopamine receptor the AtT-20 neuroendocrine cell line that stably expresses the human D3 receptors is used. In the initial screen, the ability of 300 nM lead compound to activate G-protein coupled inward rectifier potassium (GIRK) channels (FIG. 1) is measured using whole cell voltage clamp recording. The protocol has been previously used for performing whole cell voltage clamp and measuring agonist-induced GIRK response. The acute ligand-induced GIRK currents are compared to that elicited by equivalent concentration of native agonist dopamine or full agonist quinpirole. The specificity of the response is determined by measuring GIRK response elicited by the lead compound in non-transfected AtT-20 cells and also in the presence of D2-like dopamine receptor antagonist eticlopride and D3 receptor selective antagonist GR218231 ((+)-(2R)-1,2,3,4-tetrahydro-6-[[(4-methoxyphenyl)sulfonyl]methyl]-N,N-dipropyl-2-naphthalenamine). To be considered for further development, the lead compound should generate a GIRK response that is equal to or greater than that elicited by equivalent concentration (300 nM) of dopamine or quinpirole.
# AtT-20 mouse pituitary cells were grown in Ham's F10 medium with 5% FBS, 10% heat-inactivated horse serum, 2 mM glutamine and 50 μg/ml gentamicin (Invitrogen, Carlsbad, Calif.). AtT-20 cells stabling expressing the human D2S, D2L, D3, and D4.2 and receptor were maintained in the above F10 culture media supplemented with 500 μg/ml G418 (Invitrogen). […]
# Agonist-activated currents were measured by the whole-cell patch clamp technique in voltage clamp and current clamp mode as described previously (Kuzhikandathil & Oxford, 2000, J. Gen. Physiol. 115:697-706; Kuzhikandathil et al., 1998, Mol. Cell. Neurosci. 12:390-402; Kuzhikandathil & Bartoszyk, 2006, Neuropharm. 51:873-884; Westrich & Kuzhikandathil, 2007, Biochim. Biophys. Acta-MCR 1773:1747-1758; Kuzhikandathil et al., 2004, Mol. Cell. Neurosci. 26:144-155; Westrich et al., 2010, Biochem. Pharmacol. 79:897-907). […]
# [1] = tested on: intrastriatal 6-OHDA lesioned rats; assay: Levodopa-induced dyskinesia (AIMs score) in intrastriatal 6-OHDA lesioned rats; type: in vivo, rat; settings: PBZI 17 mg/kg sc; for effect on levodopa-induced dyskinesia (AIMs score): given 10 minutes before 6 mg/kg levodopa, ES609 20 mg/kg
# Method: In particular, rats in which unilateral intrastriatal lesion is induced by injection of 6-OHDA (7 μg) at three different sites in the ventrolateral striatum are used. The coordinates for the three injection sites are, in mm: injection site 1: AP: +1.0; ML: −3.0; DV: −5.0; injection site 2: AP: −0.1; ML: −3.7; DV: −5.0; injection site 3: AP: −1.2; ML: −4.5; DV: −5.0. Anterior-posterior (AP) and mediolateral (ML) coordinates are from bregma. The dorso-ventral (DV) coordinates are from dura. The toothbar location is 0.
# Seven and half weeks after the lesion, chronic levodopa treatment (6 mg/kg, single dose per day given with 15 mg/kg benserazide) is initiated. Stepping test and AIMs scores are determined on day 1, 8, 10, 17 and 24 after the initiation of chronic levodopa treatment. […] AIMs are scored using a rating scale based on frequency and severity of the dyskinetic symptoms. It should be noted that the rank order of the various AIMs components in terms of frequency and severity in the rat model is: limb>orolingual=axial>>locomotor. This lesion model has been used to test the effect of PBZI on LID (Example 3).
# FIG. 13A illustrates the effect of control, PD128907 (a tolerance inducing D2/D3 agonist) and PBZI (a non tolerance inducing D3/D3 agonist) on the total AIMs score (includes locomotor, axial, limb and orolingual) over time of a day 17 (chronic L-DOPA phase) lesioned animal.
# [2] = tested on: intrastriatal 6-OHDA lesioned rats; assay: Forelimb stepping test in intrastriatal 6-OHDA lesioned rats; settings: for motor deficits in a rat PD model: FIG. 18
Compound,Adenylyl cyclase inhibition: agonist type (D2L dopamine receptor),"Adenylyl cyclase inhibition EC50 (D2L dopamine receptor; AtT-20 cells, D2L)","Adenylyl cyclase inhibition Ratio of ES609 to quinpirole response (at 300 nM) (D2L dopamine receptor; D2L, 300 nM)","adenylyl cyclase inhibition at 300 nM (D2L dopamine receptor; D2L, 300 nM)",Adenylyl cyclase inhibition: agonist type (D2L dopamine receptor; listed as ES0609),Adenylyl cyclase inhibition: agonist type (D4.2 dopamine receptor),"EC50 (D4.2 dopamine receptor; AtT-20 cells, D4.2, read-out: Adenylyl cyclase inhibition EC50) [nM]","Adenylyl cyclase inhibition Ratio of ES609 to quinpirole response (at 300 nM) (D4.2 dopamine receptor; D4.2, 300 nM)",Adenylyl cyclase inhibition: agonist type (D4.2 dopamine receptor; listed as ES0609),GIRK currents in parental AtT-20 cells (parental AtT-20 cells),GIRK currents in parental AtT-20 cells (parental AtT-20 cells; listed as ES 609),effect on levodopa-induced dyskinesia (AIMs score) [1],motor deficits in a rat PD model [2],"EC50 (D2L dopamine receptor; AtT-20 cells, D2L, read-out: Adenylyl cyclase inhibition EC50) [nM]","Adenylyl cyclase inhibition Ratio of PBZI to quinpirole response (at 300 nM) (D2L dopamine receptor; D2L, 300 nM)","Adenylyl cyclase inhibition EC50 (D4.2 dopamine receptor; AtT-20 cells, D4.2)","Adenylyl cyclase inhibition Ratio of PBZI to quinpirole response (at 300 nM) (D4.2 dopamine receptor; D4.2, 300 nM)","adenylyl cyclase inhibition at 300 nM (D4.2 dopamine receptor; D4.2, 300 nM)","dyskinesia induced by the compound itself, before levodopa administration ([1]; PD128907 0.1 mg/kg sc)",effect on beneficial effect of levodopa on bradykinesia/akinesia (stepping test) ([2]; co-administration of PBZI and levodopa)
CC(N)CCc1ccccc1Cl (stereo not shown) [ES609],did not elicit any response,No response,0^†,^†no adenylyl cyclase inhibition in the presence of 300 nM ES609; but 300 nM quinpirole elicits ~80% inhibition.,No response,partial agonist,0.82,0.60*,Partial,neither 300 nM PBZI (hatched bar) nor 300 nM ES609 (cross hatched bar) induced GIRK currents,did not elicit GIRK currents,improve levodopa-induced dyskinesia,improve motor deficits,,,,,,,
"CCCN1CC[C@@H]2c3cc(O)ccc3CC[C@@H]21 [PBZI, (3aS,9bR)-3-propyl-1,2,3a,4,5,9b-hexahydrobenzo[e]indol-8-ol]",full agonist and full,,,,,elicited no response and no,,,,neither 300 nM PBZI (hatched bar) nor 300 nM ES609 (cross hatched bar) induced GIRK currents,,reduces AIM scores; also recorded: significantly reduced the AIM score; also recorded: delayed the onset of levodopa induced dyskinesia; also recorded: delayed and reduced the dyskinesia induced by levodopa; also recorded: improve levodopa-induced dyskinesia,improve motor deficits,67,0.83,No response,0^†,^†no adenylyl cyclase inhibition in the presence of 300 nM PBZI; but 300 nM quinpirole elicits ~70% inhibition.,did not induce dyskinesia,did not attenuate the beneficial effect of levodopa
